The text below walks through data of patent US20250073249A1, “STEROID COMPOUND, AND PREPARATION METHOD THEREFOR AND USE THEREOF” (SHANGHAI INSTITUTE OF MATERIA MEDICA, CHINESE ACADEMY OF …, priority 2022, published 2025).

Where two headings read alike, the source gives them in different places.

One series deals with LNCaP cells. As to the kind of experiment: In vitro LNCaP cell proliferation inhibition test (CellTiter-Glo). It counts as cell-based. The note with it: for Maximum Inhibition (%) / IC50: 6 days; for IC50: Homo sapiens, read-out: Anti-proliferative activity IC50; for Anti-proliferative activity, fold improvement compared to abiraterone: ratio to abiraterone IC50. In general terms: Cellular ATP, detected with luciferase, serves as a proxy for viable cell number.

For a further series, the target named is T1, AR (Homo sapiens, UniProt P10275, T878A).
T1 construct: endogenous in cells; host or cells: LNCaP
T1 sequence (P10275 1-920 T878A): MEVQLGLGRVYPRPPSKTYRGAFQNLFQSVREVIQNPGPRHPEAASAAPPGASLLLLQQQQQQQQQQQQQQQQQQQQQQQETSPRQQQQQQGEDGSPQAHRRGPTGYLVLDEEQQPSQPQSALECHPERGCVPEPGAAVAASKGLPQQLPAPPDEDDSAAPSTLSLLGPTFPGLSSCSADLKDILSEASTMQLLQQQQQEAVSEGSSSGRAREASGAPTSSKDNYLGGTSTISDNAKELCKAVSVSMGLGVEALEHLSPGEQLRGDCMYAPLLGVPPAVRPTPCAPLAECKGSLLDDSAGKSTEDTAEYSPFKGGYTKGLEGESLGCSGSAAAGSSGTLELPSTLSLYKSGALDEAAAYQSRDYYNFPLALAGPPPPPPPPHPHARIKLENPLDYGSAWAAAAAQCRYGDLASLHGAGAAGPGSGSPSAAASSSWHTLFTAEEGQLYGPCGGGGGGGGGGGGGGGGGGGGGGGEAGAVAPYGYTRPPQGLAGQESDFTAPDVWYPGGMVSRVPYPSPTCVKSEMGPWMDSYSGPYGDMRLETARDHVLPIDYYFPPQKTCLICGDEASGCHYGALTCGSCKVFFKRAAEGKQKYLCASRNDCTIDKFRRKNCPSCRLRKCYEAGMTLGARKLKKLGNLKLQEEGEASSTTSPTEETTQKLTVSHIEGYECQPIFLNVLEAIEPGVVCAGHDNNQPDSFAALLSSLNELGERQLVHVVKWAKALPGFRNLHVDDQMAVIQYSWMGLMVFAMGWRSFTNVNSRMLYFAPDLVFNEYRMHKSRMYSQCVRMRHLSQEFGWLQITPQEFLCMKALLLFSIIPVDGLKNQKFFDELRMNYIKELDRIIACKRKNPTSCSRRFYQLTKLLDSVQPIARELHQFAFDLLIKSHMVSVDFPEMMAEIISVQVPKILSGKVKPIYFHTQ
In words: In vitro AR degradation activity test in LNCaP cells (ELISA, OD450). Type of series: cell-based. The note with it: for DC50: LNCaP cells, 24 hours; for AR degradation activity, improvement compared to Galeterone: ratio to Galeterone DC50. Summed up:
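AR in protein-normalized lysates was quantified by sandwich ELISA with HRP detection at OD450. Degradation rate (%) was computed from OD450 max/min controls, and IC50 was derived from it.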
(ELISA stands for enzyme-linked immunosorbent assay.)

Series [1] can be described thus: In vivo pharmacokinetics in rats after oral gavage. The note with it: male SD rats, PO 10 mg/kg. As to the method: Male SD rats were randomly divided into 6 groups, 3 rats per group. The rats were fasted but not water-deprived for 12-14 h one day before dosing. The test samples were then dissolved in a solvent of 5% DMSO+30% PEG400+65% (0.5% MC) and administered by gavage at 10 mg/kg. Food was provided 4 h after dosing. Blood samples (0.10 mL) were collected via the orbital sinus at 0, 15, 30 min, 1, 2, 4, 6, 8, and 24 h, with EDTA-K2 as anticoagulant. Blood samples were placed on ice after collection and centrifuged to separate plasma within 30 minutes (centrifugation conditions: 5000 rpm, 10 minutes, 4° C.). 50.0 μL of plasma sample (taken from −80° C. freezer, thawed naturally at room temperature and vortexed for 30 seconds) was added to a 1.5 mL centrifuge tube, followed by addition of 500 μL internal standard solution (methanol (TEDIA, HPLC grade), acetonitrile (TEDIA, HPLC grade), formic acid (FA, ACROS ORGANICS, HPLC grade), water was laboratory-made ultrapure water (100.0 ng·mL−1)). The mixture was vortexed for 60 seconds and centrifuged for 3 minutes (centrifugal force 12000 rpm). 100 μL of the supernatant was transferred to a 96-well injection plate containing an equal volume of water, mixed by shaking, and analyzed by LC-MS/MS with an injection volume of 10 μL. The data acquisition and control system software was Analyst 1.5.1 software (Applied Biosystem). The chromatographic sample peaks were integrated automatically. The ratio of sample peak area to internal standard peak area was used as an indicator for regression with sample concentration.
The pharmacokinetic parameters of representative compounds of the present invention were tested in male SD rats after oral gavage administration at 10 mg/kg according to the above conventional method to examine the pharmacokinetic characteristics of the compounds of the present invention in rats.

For the compound `Cc1cn(C2=CCC3C4CC=C5C[C@@H](NC(=O)c6ccc(S(C)(=O)=O)cc6)CC[C@]5(C)C4CC[C@]23C)cn1` (stereo partly drawn) [Compound 35, N-((3S,10R,13S)-17-(4-methyl-1H-imidazol-1-yl)-10,13-dimethyl-2,3,4,7,8,9,10,11,12,13,14,15-dodecahydro-1H-cyclopenta[a]phenanthren-3-yl)-4-(methylsulfonyl)benzamide], in the series on LNCaP cells, the “Maximum Inhibition (%)” value came out at 96.85% and the IC50 turned out to be 527 nM. Also, at AR, the DC50 came out at 1560 nM and the “AR degradation activity, improvement compared to Galeterone” value was 6.7 times.
As for `Cc1cn(C2=CCC3C4CC=C5C[C@@H](NC(=O)c6ccc(F)cc6F)CC[C@]5(C)C4CC[C@]23C)cn1` (stereo partly drawn) [Compound 37, N-((3S,10R,13S)-17-(4-methyl-1H-imidazol-1-yl)-10,13-dimethyl-2,3,4,7,8,9,10,11,12,13,14,15-dodecahydro-1H-cyclopenta[a]phenanthren-3-yl)-2,4-difluorobenzamide], in the series on LNCaP cells, the “Maximum Inhibition (%)” value is listed as 95.85%; the IC50 stood at 327 nM; the “Anti-proliferative activity, fold improvement compared to abiraterone” value was 8.6 fold. For the same compound, in series [1], the Kel is 0.124 h⁻¹, the MRTPO stood at 10.0 h, the T1/2 was 6.02 h and the tmax worked out at 6.00 h. Besides, in series [1] (rat, plasma), the AUC(0-inf) is 24500 ng·h/mL and the AUC(0-t) is 22500 ng·h/mL. Also, the Cmax in series [1] (rat, plasma, read-out: Cmax) worked out at 1550 ng/mL. Also, at AR, it took 1680 nM to reach half-maximal degradation (DC50) and the “AR degradation activity, improvement compared to Galeterone” value is listed as 6.2 times.
`Cc1cn(C2=CCC3C4CC=C5C[C@@H](NC(=O)c6ccc(F)cc6)CC[C@]5(C)C4CC[C@]23C)cn1` (stereo partly drawn) [Compound 33, N-((3S,10R,13S)-17-(4-methyl-1H-imidazol-1-yl)-10,13-dimethyl-2,3,4,7,8,9,10,11,12,13,14,15-dodecahydro-1H-cyclopenta[a]phenanthren-3-yl)-4-fluorobenzamide]: in the series with LNCaP cells, the “Maximum Inhibition (%)” value was found to be 102.9% and the IC50 came to 478 nM. Also, the “Anti-tumor activity and efficacy compared to enzalutamide” value with LNCaP cells (in words) is given as “comparable anti-tumor activity but significantly superior anti-tumor efficacy compared to enzalutamide”. Further, in series [1], the Cmax was 6431 ng/mL, the Kel is 0.214 h⁻¹, the MRTPO is reported as 6.03 h and the T1/2 was 3.28 h. The compound further returned a tmax in series [1] of 4.00 h. For the same compound, in series [1] (rat, plasma), the AUC(0-inf) turned out to be 69500 ng·h/mL and the AUC(0-t) stood at 68900 ng·h/mL. For the same compound, at AR, half-maximal degradation (DC50) was put at 1280 nM and the “AR degradation activity, improvement compared to Galeterone” value was found to be 8.1 times.
For the compound `Cc1cn(C2=CCC3C4CC=C5C[C@@H](NC(=O)c6ccncc6)CC[C@]5(C)C4CC[C@]23C)cn1` (stereo partly drawn) [Compound 14, N-((3S,10R,13S)-10,13-dimethyl-17-(4-methyl-1H-imidazol-1-yl)-2,3,4,7,8,9,10,11,12,13,14,15-dodecahydro-1H-cyclopenta[a]phenanthren-3-yl)isonicotinamide], in the series on LNCaP cells, the “Maximum Inhibition (%)” value was 99.35%; the half-maximal inhibitory concentration (IC50) worked out at 205 nM; the “Anti-proliferative activity, fold improvement compared to abiraterone” value is listed as 15.8 fold. In addition, in series [1], the Cmax is 2670 ng/mL, the Kel amounted to 0.252 h⁻¹, the MRTPO worked out at 5.12 h and the T1/2 was 2.80 h. For the same compound, the tmax in series [1] was determined as 2.17 h. Also, in series [1] (rat, plasma), the AUC(0-inf) stood at 24800 ng·h/mL and the AUC(0-t) came to 24800 ng·h/mL.

One may read the IC50 as the concentration that gives 50% inhibition. The DC50 is the midpoint of the concentration-degradation curve. As usually defined, the AUC(0-inf) is total exposure, with the tail of the curve extrapolated. A low value points to less exposure. As a reminder, the AUC(0-t) is the area under the concentration-time curve up to a stated or last time point. A high value points to more exposure. A word on the Cmax: it is the maximum level reached in the sampled fluid or tissue.
